In patent US10538555B2, “Macrocyclic inhibitors of the PD-1/PD-L1 and CD80(B7-1)/PD-L1 protein/protein interactions” (BRISTOL-MYERS SQUIBB COMPANY, priority 2014, dated 2020) one finds IC50 data, which are given here for six molecules.

pIC50: −log10 of the molar value. *1 amine or outer side, *2 acyl side, *3 side chain or, on linkers, in order; H or OH if unused. Where a SMILES comes first, the peptide text is derived from it. Bridges are numbered along the chain shown (N, C = ends). [ ]: non-standard residue; d: D form. ξ: configuration not given here. Phe(3,4,5-F3) = N[C@@H](Cc1cc(F)c(F)c(F)c1)C(=O)O; Phe(3,4-F2) = N[C@@H](Cc1ccc(F)c(F)c1)C(=O)O; d(cisHyp) = O=C(O)[C@H]1C[C@@H](O)CN1; Hyp = O=C(O)[C@@H]1C[C@@H](O)CN1; NMeF = CN[C@@H](Cc1ccccc1)C(=O)O; X1 = O=C([C@H]1COCCN1[*:1])[*:2]; dNMeF = CN[C@H](Cc1ccccc1)C(=O)O; dHyp = O=C(O)[C@H]1C[C@H](O)CN1; NMeNle = CCCC[C@H](NC)C(=O)O; hSer = N[C@@H](CCO)C(=O)O; NMeA = CN[C@@H](C)C(=O)O; Orn = NCCC[C@H](N)C(=O)O; Dab = NCC[C@H](N)C(=O)O; Dap = NC[C@H](N)C(=O)O; ξPip = O=C(O)C1CCCCN1; ξC = NC(CS)C(=O)O

The target of one experiment is T1, Human PD-L1/PD-1 (Homo sapiens, UniProt Q9NZQ7).
T1 construct: TVMV protease cleavage site (C); made in house; host or cells: HEK293T cells
T1 sequence (Q9NZQ7 with tags, fused parts or gaps): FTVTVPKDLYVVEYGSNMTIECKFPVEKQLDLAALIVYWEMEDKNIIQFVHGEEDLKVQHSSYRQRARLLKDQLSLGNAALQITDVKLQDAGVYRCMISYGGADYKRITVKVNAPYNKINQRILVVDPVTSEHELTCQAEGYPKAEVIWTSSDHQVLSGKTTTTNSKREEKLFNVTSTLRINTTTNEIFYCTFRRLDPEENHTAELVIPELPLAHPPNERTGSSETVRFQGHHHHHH
The experiment is described as follows: HTRF Human PD-L1/PD-1 binding assay (PD-1-Ig/PD-L1-His). The conditions noted are these: PD-L1-His 10 nM, PD-1-Ig 20 nM; class symbol; read-out: HTRF Human PD-L1/PD-1 Binding Assay IC50 Range. The method, boiled down:
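HTRF read-out (665/620 nm ratio) after 30 min equilibration with Eu-cryptate anti-Ig mAb (1 nM) and APC anti-His mAb (20 nM). Peptides preincubated 15 min with PD-L1-His (10 nM), then PD-1-Ig (20 nM) added for 15 min.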
In general terms: Time-resolved FRET reads energy transfer from a long-lived donor to a nearby acceptor.
Regarding `CCCC[C@H]1C(=O)N(C)[C@@H](CCCC)C(=O)N[C@@H](CO)C(=O)N[C@H](C(=O)NCC(N)=O)CSCC(=O)N[C@@H](Cc2ccc(OC)cc2)C(=O)N(C)[C@@H](C)C(=O)N[C@@H](CC(N)=O)C(=O)N2CCC[C@H]2C(=O)N[C@@H](Cc2c[nH]cn2)C(=O)N[C@@H](CCC(N)=O)C(=O)N2C[C@H](O)C[C@H]2C(=O)N[C@@H](Cc2c[nH]c3ccccc23)C(=O)N[C@@H](CO)C(=O)N[C@@H](Cc2c[nH]c3ccccc23)C(=O)N1C` [Example 7137] ({CH2CO}-Y(Me)[NMeA]NPHQ[Hyp]WSW[NMeNle][NMeNle]SCG-NH2; thioether N-14), the pIC50 was 8.00 to 9.00. `CCCC[C@H]1C(=O)N(C)[C@@H](CCCC)C(=O)N[C@@H](CCN)C(=O)NC(C(=O)NCC(N)=O)CSCC(=O)N[C@@H](Cc2ccc(O)cc2)C(=O)N(C)[C@@H](C)C(=O)N[C@@H](CC(N)=O)C(=O)N2CCC[C@H]2C(=O)N[C@@H](CC(N)=O)C(=O)N[C@@H](CC(C)C)C(=O)N2C[C@H](O)C[C@H]2C(=O)N[C@@H](Cc2c[nH]c3ccccc23)C(=O)N[C@@H](CO)C(=O)N[C@@H](Cc2c[nH]c3ccccc23)C(=O)N1C` (stereo partly drawn) [Example 9164] ({CH2CO}-Y[NMeA]NPNL[Hyp]WSW[NMeNle][NMeNle][Dab][ξC]G-NH2; thioether N-14): the pIC50 was 8.00 to 9.00.

On to `CCCC[C@H]1C(=O)N2C[C@@H](O)C[C@@H]2C(=O)N[C@@H](CC(=O)O)C(=O)N[C@@H](C(C)C)C(=O)N(C)[C@H](Cc2ccccc2)C(=O)N[C@@H](Cc2ccc(O)cc2)C(=O)N2C[C@@H](O)C[C@@H]2C(=O)N[C@@H](Cc2c[nH]c3ccccc23)C(=O)N[C@@H](Cc2ccc(O)cc2)C(=O)N[C@@H](CC(C)C)C(=O)N[C@H](C(=O)NCC(N)=O)CSCC(=O)N[C@@H](Cc2ccc(F)c(F)c2)C(=O)N(C)[C@@H](Cc2ccccc2)C(=O)N1C` [Example 9228] ({CH2CO}-[Phe(3,4-F2)][NMeF][NMeNle][dHyp]DV[dNMeF]Y[dHyp]WYLCG-NH2; thioether N-13), for which the pIC50 is 7.00 to 8.00. Consider `CCCC[C@H]1C(=O)N2C[C@H](O)C[C@@H]2C(=O)N[C@@H](CC(=O)O)C(=O)N[C@@H](C(C)C)C(=O)N(C)[C@@H](Cc2ccccc2)C(=O)N[C@@H](Cc2ccc(O)cc2)C(=O)N2CCOC[C@@H]2C(=O)N[C@@H](Cc2c[nH]c3ccccc23)C(=O)N[C@@H](Cc2ccc(O)cc2)C(=O)N[C@@H](CCO)C(=O)N[C@H](C(=O)NCC(N)=O)CSCC(=O)N[C@@H](Cc2cc(F)c(F)c(F)c2)C(=O)N(C)[C@@H](Cc2ccccc2)C(=O)N1C` [Example 10159] ({CH2CO}-[Phe(3,4,5-F3)][NMeF][NMeNle][d(cisHyp)]DV[NMeF]Y[X1]WY[hSer]CG-NH2; thioether N-13), for which the pIC50 is 8.00 to 9.00.

`CCCC[C@H]1C(=O)N(C)[C@@H](CCCC)C(=O)N[C@@H](CCCN)C(=O)N[C@H](C(=O)NCC(N)=O)CSCC(=O)N[C@@H](Cc2ccc(O)cc2)C(=O)N2CCCCC2C(=O)N[C@@H](CC(=O)O)C(=O)N2CCC[C@H]2C(=O)N[C@@H](CN)C(=O)N[C@@H](CCC(=O)O)C(=O)N2C[C@H](O)C[C@H]2C(=O)N[C@@H](Cc2c[nH]c3ccccc23)C(=O)N[C@@H](CCN)C(=O)N[C@@H](Cc2c[nH]c3ccccc23)C(=O)N1C` (stereo partly drawn) [Example 1528] ({CH2CO}-Y[ξPip]DP[Dap]E[Hyp]W[Dab]W[NMeNle][NMeNle][Orn]CG-NH2; thioether N-14): the pIC50 is 7.00 to 8.00.

Still in this experiment, the particulars now being: PD-L1-His 10 nM, PD-1-Ig 20 nM; read-out: HTRF Human PD-L1/PD-1 Binding Assay IC50.
For `CCCC[C@H]1NC(=O)[C@H](Cc2c[nH]c3ccccc23)NC(=O)[C@H](CO)NC(=O)[C@H](Cc2c[nH]c3ccccc23)NC(=O)[C@@H]2C[C@@H](O)CN2C(=O)[C@H](CC(C)C)NC(=O)[C@H](Cc2cnc[nH]2)NC(=O)[C@@H]2CCCN2C(=O)[C@H](CC(N)=O)NC(=O)[C@H](C)N(C)C(=O)[C@H](Cc2ccc(O)cc2)NC(=O)CSCC(C(=O)NCC(N)=O)NC(=O)[C@H](CCC(=O)O)NC(=O)[C@H](CCCC)N(C)C1=O` (stereo partly drawn) [Example 10131], the pIC50 was 5.54.
